Assays:
PPARγ = molecular target: T1, PPARγ (Homo sapiens, UniProt P37231); test: PPARγ beta-lactamase reporter assay; format: cell-based; conditions: concentrations 0.5-10,000 nM; read-out: PPARγ activation EC50
T1 sequence (P37231 1-505): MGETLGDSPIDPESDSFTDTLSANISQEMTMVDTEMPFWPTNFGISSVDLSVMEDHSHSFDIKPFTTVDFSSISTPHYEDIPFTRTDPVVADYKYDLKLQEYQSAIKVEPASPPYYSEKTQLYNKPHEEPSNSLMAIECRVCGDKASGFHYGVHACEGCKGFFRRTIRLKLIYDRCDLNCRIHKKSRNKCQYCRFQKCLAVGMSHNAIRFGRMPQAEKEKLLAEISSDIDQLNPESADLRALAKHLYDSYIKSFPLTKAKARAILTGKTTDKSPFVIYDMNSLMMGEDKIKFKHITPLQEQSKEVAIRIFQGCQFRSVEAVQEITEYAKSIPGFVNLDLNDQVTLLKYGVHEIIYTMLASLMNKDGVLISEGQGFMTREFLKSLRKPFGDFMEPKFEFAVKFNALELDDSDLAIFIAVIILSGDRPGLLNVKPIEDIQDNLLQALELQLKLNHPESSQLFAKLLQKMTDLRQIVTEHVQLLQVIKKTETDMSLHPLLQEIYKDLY
Procedure: FIG. 11a-11e illustrates modulation of anti-oxidant and inflammatory responses by 17-oxoDHA and 17-oxoDPA. RAW264.7 cells were treated with increasing concentration of 17-oxoDHA and 17-oxoDPA. (a) Cells were harvested 1 h after treatment and Nrf2 levels were quantified in nuclear extracts. (b) Cells were harvested 18 h after treatment and HO-1 and Nqo1 (upper band) levels were measured by western blot. (c, d) RAW264.7 cells were treated with increasing concentration of 17-oxoDHA and 17-oxoDPA for 6 h and Kdo2+IFNγ were added. Samples were collected at 12 h. IL-6, MCP-1 and IL-10 levels were measured in the cell media by Quantikine ELISA Kit (R&D Systems) and normalized by the total protein content (c); Nitrite levels were measured in the cell media and normalized by the total protein content and iNOS and Cox-2 levels were measured in total cell lysates (d); (e) PPARγ beta-lactamase reporter assays were performed for Rosiglitazone, 17-OxoDPA, 17-OxoDHA, 15d-PGJ2, 17-hydroxyDHA, DPA, and DHA with concentrations ranging from 0.5-10,000 nM.
The observation that oxo-fatty acids, such as 15d-PGJ2^30, 5-oxoEPA, 6-oxoOTE, and the synthetic 4-oxoDHA^31, covalently bind and activate the peroxisome proliferator-activated receptor γ (PPARγ), prompted the present inventors to test the ability of 17-oxoDPA, and 17-oxoDHA to activate PPARγ. […]

[1] = system: EFAD formation in RAW264.7 cells; test: Inhibitor study: EFAD formation in RAW264.7 cells activated with Kdo2 and IFNγ; format: cell-based, murine
Ovine placental COX-2 = molecular target: T2, Ovine placental COX-2 (Ovis aries, UniProt P79208); test: In vitro COX-2 reaction with DPA ± ASA; format: biochemical; conditions: purified ovine COX-2 + DPA 10 μM, 2 mM ASA
T2 construct: Ovine placental COX-2 (Cayman 60120) was also from Cayman Chemicals; purchased Cayman Chemicals 60120; host or cells: ovine placenta (tissue-derived, from the word 'placental')
T2 sequence (P79208 17-603): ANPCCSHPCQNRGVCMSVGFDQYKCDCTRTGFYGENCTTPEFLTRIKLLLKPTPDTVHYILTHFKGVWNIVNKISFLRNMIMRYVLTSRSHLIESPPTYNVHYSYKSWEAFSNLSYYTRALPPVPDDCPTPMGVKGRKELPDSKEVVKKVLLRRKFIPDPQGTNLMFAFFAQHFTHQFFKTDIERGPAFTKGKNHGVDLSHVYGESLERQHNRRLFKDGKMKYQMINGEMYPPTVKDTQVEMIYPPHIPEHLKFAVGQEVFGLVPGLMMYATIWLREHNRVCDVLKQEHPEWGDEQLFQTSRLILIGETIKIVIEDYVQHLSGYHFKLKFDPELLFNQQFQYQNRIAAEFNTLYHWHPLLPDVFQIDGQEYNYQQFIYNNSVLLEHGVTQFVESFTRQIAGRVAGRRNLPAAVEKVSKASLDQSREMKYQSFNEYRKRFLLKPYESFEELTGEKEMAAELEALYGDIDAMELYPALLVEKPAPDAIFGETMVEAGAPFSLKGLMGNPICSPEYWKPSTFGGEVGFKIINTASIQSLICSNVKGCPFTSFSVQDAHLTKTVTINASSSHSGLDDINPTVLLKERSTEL

[2] = system: bone marrow-derived macrophage (BMDM) cells; test: EFAD formation in activated bone marrow-derived macrophages ± ASA; format: cell-based, C57BL/6 murine; conditions: activated with Kdo2 and IFNγ, treated with ASA
RAW264.7 cells = test: GS-EFAD adducts in activated RAW264.7 cells; format: cell-based, murine; conditions: activated RAW264.7 cells + ASA
[3] = RAW264.7 + Kdo2 + IFNγ, 20 h, ↓ decrease, ↑ increase, NE (not defined in patent)

Structure (SMILES) | EC50 (PPARγ) | Increase of EFAD formation ([1]; ASA 200 μM, all EFADs except EFAD-4 and EFAD-6) | Effect of inhibitor on EFAD-1 formation [1, 3] | Effect of inhibitor on EFAD-2 formation [1, 3] | Effect of inhibitor on EFAD-3 formation [1, 3] | Effect of inhibitor on EFAD-4 formation [1, 3] | Effect of inhibitor on EFAD-5 formation [1, 3] | Effect of inhibitor on EFAD-6 formation [1, 3] | Formation of OH-DPA by COX-2 (Ovine placental COX-2) | Extent of EFAD formation in BMDM [2] | Formation of GS-adducts (RAW264.7 cells)
CCCCCC=CC=C1C(=O)C=C[C@@H]1CC=CCCCC(=O)O [15d-PGJ2, 15-deoxy-Δ (12,14)-prostaglandin J2] | ~25 nM | – | – | – | – | – | – | – | – | – | –
CC(=O)Oc1ccccc1C(=O)O [ASA, acetyl salicylic acid] | – | about 2.5 fold | ↑ | ↑ | ↑ | ↓ | ↑ | ↓ | increased the rate and extent of formation | increased about two to three fold | enhanced the formation of GS-adducts

Source: patent US11723897B2, “Fatty acids as anti-inflammatory agents” (University of Pittsburgh—Of the Commonwealth System of …, priority 2009, dated 2023)
